Data published in PubChem BioAssay (NCI).
In brackets after ≈: the same amount, converted by molar mass. Several values for one entry are separate records, joined by “and”; a condition that tells them apart may be missing. Equal values may be shown once.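 These data come from cells grown in 96-well plates and exposed to compound for 48 hours at five concentrations. At the GI50, growth is halved. Definition used: TGI = concentration required for complete inhibition of growth.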 Activity calls are given as the source filed them. Rule as the data show it: active = GI50 below about 0.43 µM; inactive = the rest.

Tests used:
Test in all cases: NCI anticancer screen, dose series, 48 h
[1] = test system: DMS 273 small cell lung
[2] = test system: M19-MEL melanoma
[3] = test system: LXFL 529 NSCLC
[4] = test system: KM20L2 colon
[5] = test system: HOP-18 NSCLC
[6] = test system: SNB-78 CNS
[7] = test system: XF 498 CNS
[8] = test system: DLD-1 colon

SMILES	TGI [1]	TGI [2]	TGI [3]	TGI [4]	TGI [5]	TGI [6]	TGI [7]	TGI [8]	GI50 [1]	GI50 [2]	outcome [3]	outcome [4]	GI50 [5]	outcome [5]	GI50 [6]	GI50 [8]	GI50 [3]	GI50 [4]
COC(=O)C(CCS(=O)(=O)CC(=O)C(=O)Nc1cccc(C(C)=O)c1)C(=O)OC	> 100 µM	> 100 µM	> 100 µM	> 100 µM	> 100 µM	> 100 µM	> 100 µM	> 100 µM										
COc1c(O)c2c(c3cc(C(=O)N4CCc5c4c(O)c(OC)c4[nH]c(C(=O)N6CC7CC78C6=CC(=O)c6[nH]cc(C)c68)cc54)[nH]c13)CCN2C(N)=O (stereo not given)	7.18 nM and 0.0106 µg/mL	14.8 nM and 0.041 µg/mL	0.0329 µM	0.0181 µM	0.0856 µM	0.0534 µg/mL			1.98 ng/mL	0.0165 µg/mL (≈ 0.0235 µM)	inactive	inactive	0.0126 µM	inactive	0.0117 µg/mL	3.41 ng/mL		
O=C1C(Cl)=C(Cl)C(=O)N1C1C2CC3CC(C2)CC1C3 (stereo not given)	> 100 µM	> 100 µM	> 100 µM	> 100 µM	> 100 µM	> 100 µM	> 100 µM	> 100 µM										
CCCCCCCCCCC/C(=N/O)c1ccc(O)c2ncccc12	4.79 µM	4.97 µM	7.57 µM	17.6 µM	9.59 µM	> 100 µM		8.91 µM										
CCCN(CCCCC(NC(C)=O)C(=O)NCc1ccccc1)C(=O)NCCCl (stereo not given)	> 100 µM	> 100 µM	> 100 µM	> 100 µM	> 100 µM		> 100 µM	> 100 µM										
C=C1[C@@H](C)[C@H]2[C@H](Cc3ccccc3)NC(=O)[C@]23OC(=O)/C=C/[C@H](O)CCC[C@@H](C)C/C=C/[C@H]3[C@@H]1O	> 97 µM	> 100 µM		> 100 µM	3.03 µM	15.2 µM	8.97 µM	> 100 µM										
CC(C)N(C(=O)C12C3C4C5(C#N)C3C1(I)C5C42I)C(C)C (stereo not given)	> 100 µM	> 100 µM	> 100 µM	> 100 µM	> 100 µM	> 100 µM	> 100 µM	> 100 µM										
CC(CN(CP(=O)([O-])[O-])CP(=O)([O-])[O-])N(CP(=O)([O-])[O-])CP(=O)([O-])[O-].N.N.[Pt+2] (stereo not given)	> 100 µM		> 100 µM	> 100 µM	> 100 µM	> 100 µM		> 100 µM	> 100 µM				26.1 µM		> 100000 nM	> 100 µM	> 100 µM	> 100 µM
COC(=O)C1=C(C)N(NC(N)=O)C2(N)N(NC(N)=O)C(C)=C(C(=O)OC)C12C(=O)OC (stereo not given)	> 100 µM	> 100 µM	> 100 µM	> 100 µM	> 100 µM	> 100 µM	> 100 µM	> 100 µM										
CCCCCCCCCC(=O)CC(=O)c1ccc(O)cc1O	74.1 µM		> 100 µM	> 100 µM	81.9 µM			> 100 µM										
CCN1C2=NC(=O)N(C)C(=O)C2(Cl)C(C(SC)S(=O)(=O)c2ccc(C)cc2)c2ccccc21 (stereo not given)	> 100 µM	61.5 µM	59.3 µM	> 100 µM		58.3 µM	> 100 µM	> 100 µM										
Clc1ccc(Cl)c2[s+]snc12	> 62.7 µM	> 100 µM	> 100 µM	> 100 µM	> 100 µM	> 100 µM	> 100 µM	> 100 µM										
COC(=O)C1CC(C(=O)OC)c2nc3cc(C)ccc3nc21 (stereo not given)	> 100 µM	> 100 µM	> 100 µM	> 100 µM	> 100 µM	> 100 µM	> 100 µM	> 100 µM										
COc1ccc2[nH]c(-c3ccccn3)cc(=O)c2c1		> 100 µM	> 100 µM	> 100 µM	> 100 µM	> 100 µM		> 100 µM										35.1 µM
O=C1c2cccc3cc([N+](=O)[O-])cc(c23)C(=O)N1CCNCCNCCNCCN1C(=O)c2cccc3cc([N+](=O)[O-])cc(c23)C1=O	0.177 µM and 0.23 µM		0.496 µM	0.576 µM		0.399 µM and 0.686 µM		0.272 µM							47.4 nM			
